The results in this text go back to patent US11161842B2, “Bifunctional molecules for degradation of EGFR and methods of use” (Dana-Farber Cancer Institute, Inc., priority 2016, dated 2021).

In general, EC50 refers to the concentration that produces a half-maximal response.

Assay [1] addresses T1, T790M/L858R transformed Ba/F3 cells (Homo sapiens, UniProt P00533, T790M/L858R, cells depend on it).
T1 construct: The constructs were shuttled into the retroviral vector JP 1540 using the BD Creator™ System (BD Biosciences)
Nature of the assay: Ba/F3 cell proliferation (MTS) assay, T790M/L858R. In kind it is cell-based, murine. The note with it: for EC50: antiproliferative activity; for % control: compound at 1 μM, inhibition of growth as percent of control. An excerpt: The EGFR mutant L858R, Del E746_A750, L858R/T790M, DelE746_A750/T790M, L858R/T790M/C797S and Del/T790M/C797S Ba/F3 cells have been previously described (Zhou, W., Ercan, D., Chen, L., Yun, C. H., Li, D., Capelletti, M., Cortot, A. B., Chirieac, L., Iacob, R. E., Padera, R., et al. “Novel mutant-selective EGFR kinase inhibitors against EGFR T790M,” Nature 462, (2009), 1070-1074). All cell lines were maintained in RPMI 1640 (Cellgro; Mediatech Inc., Herndon, Calif.) supplemented with 10% FBS 100 units/mL penicillin, 100 units/mL streptomycin, and 2 mM glutamine. L858R cells were maintained in ACL-4 media (Invitrogen, Carlsbad, Calif.) supplemented with 5% FBS, 100 units/mL penicillin, 100 units/mL streptomycin, and 2 mM glutamine. The EGFR I941R mutation was introduced via site directed mutagenesis using the Quick Change Site-Directed Mutagenesis kit (Stratagene; La Jolla, Calif.) according to the manufacturer's instructions. All constructs were confirmed by DNA sequencing. The constructs were shuttled into the retroviral vector JP 1540 using the BD Creator™ System (BD Biosciences). Ba/F3 cells were infected with retrovirus and according to standard protocols, as described previously (Zhou et al, Nature 2009). Stable clones were obtained by selection in puromycin (2 μg/ml).
Growth and inhibition of growth was assessed by MTS assay and was performed according to previously established methods (Zhou et al., Nature 2009). The MTS assay is a colorimetric method for determining the number of viable cells that is based on the bioreduction of MTS by cells to a formazan product that is soluble in cell culture medium and can be detected spectrophotometrically. Ba/F3 cells of different EGFR genotypes were exposed to treatment for 72 hours and the number of cells used per experiment determined empirically and has been previously established (Zhou et al., Nature 2009). All experimental points were set up in six wells and all experiments were repeated at least three times. […] The curves were fitted using a non-linear regression model with a sigmoidal dose response.
Compounds of Table 1 were tested at a concentration of 1 μM against T790M/L858R transformed Ba/F3 cells. The assay, as described in Example 42, measured inhibition of growth as a percent of the inhibitory activity of the control. In Table 1, A is 0<% control <25, B is 25<% control <50, C is 50<% control <75, and D is 75<% control.
Compounds of Table 2 were tested in a T790M/L858R transformed Ba/F3 cell line as described in Example 42 and the EC50 values were calculated. In Table 2, A is EC50<500 nM, B is 500 nM<EC50<1000 nM, C is 1000 nM<EC50<5000 nM, and D is 5000 nM<EC50.

The target in assay [2] is T2, T790M/L858R/C797S transformed Ba/F3 cells (Homo sapiens, UniProt P00533, T790M/C797S/L858R, cells depend on it).
T2 construct: The constructs were shuttled into the retroviral vector JP 1540 using the BD Creator™ System (BD Biosciences)
T2 sequence (P00533 whole entry T790M/C797S/L858R): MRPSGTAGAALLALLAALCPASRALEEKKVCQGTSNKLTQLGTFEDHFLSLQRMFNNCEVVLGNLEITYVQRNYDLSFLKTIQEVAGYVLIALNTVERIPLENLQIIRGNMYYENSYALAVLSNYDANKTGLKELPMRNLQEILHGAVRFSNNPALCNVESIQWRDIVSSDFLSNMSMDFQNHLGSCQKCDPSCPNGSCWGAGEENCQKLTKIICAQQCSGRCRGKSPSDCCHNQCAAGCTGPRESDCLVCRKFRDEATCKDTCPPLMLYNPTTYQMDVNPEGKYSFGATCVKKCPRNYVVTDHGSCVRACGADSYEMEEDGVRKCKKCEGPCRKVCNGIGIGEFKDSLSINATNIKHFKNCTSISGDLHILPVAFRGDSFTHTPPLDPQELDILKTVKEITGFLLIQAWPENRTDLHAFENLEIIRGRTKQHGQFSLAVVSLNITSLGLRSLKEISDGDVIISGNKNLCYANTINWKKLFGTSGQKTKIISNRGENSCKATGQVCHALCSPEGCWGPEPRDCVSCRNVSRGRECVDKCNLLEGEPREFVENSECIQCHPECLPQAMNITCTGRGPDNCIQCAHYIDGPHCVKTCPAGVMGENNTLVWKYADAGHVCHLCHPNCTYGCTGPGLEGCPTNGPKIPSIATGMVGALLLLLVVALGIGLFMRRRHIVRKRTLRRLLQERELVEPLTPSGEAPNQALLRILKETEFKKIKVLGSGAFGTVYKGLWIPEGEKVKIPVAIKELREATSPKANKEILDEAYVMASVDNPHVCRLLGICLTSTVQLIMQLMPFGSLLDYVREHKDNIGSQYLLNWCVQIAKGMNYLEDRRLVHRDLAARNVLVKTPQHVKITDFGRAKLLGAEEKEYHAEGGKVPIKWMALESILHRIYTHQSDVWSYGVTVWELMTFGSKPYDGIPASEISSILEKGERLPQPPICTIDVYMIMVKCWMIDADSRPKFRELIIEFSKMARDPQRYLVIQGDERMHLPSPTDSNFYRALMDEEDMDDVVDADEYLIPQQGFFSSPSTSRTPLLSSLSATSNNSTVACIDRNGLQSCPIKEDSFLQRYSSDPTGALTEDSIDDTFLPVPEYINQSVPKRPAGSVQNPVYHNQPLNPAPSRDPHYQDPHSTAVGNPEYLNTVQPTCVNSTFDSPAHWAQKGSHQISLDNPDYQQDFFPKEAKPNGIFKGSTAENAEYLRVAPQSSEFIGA
Nature of the assay: Ba/F3 cell proliferation (MTS) assay, T790M/L858R/C797S. In kind it is cell-based, murine. The note with it: antiproliferative activity.

T1 sequence (P00533 whole entry T790M/L858R): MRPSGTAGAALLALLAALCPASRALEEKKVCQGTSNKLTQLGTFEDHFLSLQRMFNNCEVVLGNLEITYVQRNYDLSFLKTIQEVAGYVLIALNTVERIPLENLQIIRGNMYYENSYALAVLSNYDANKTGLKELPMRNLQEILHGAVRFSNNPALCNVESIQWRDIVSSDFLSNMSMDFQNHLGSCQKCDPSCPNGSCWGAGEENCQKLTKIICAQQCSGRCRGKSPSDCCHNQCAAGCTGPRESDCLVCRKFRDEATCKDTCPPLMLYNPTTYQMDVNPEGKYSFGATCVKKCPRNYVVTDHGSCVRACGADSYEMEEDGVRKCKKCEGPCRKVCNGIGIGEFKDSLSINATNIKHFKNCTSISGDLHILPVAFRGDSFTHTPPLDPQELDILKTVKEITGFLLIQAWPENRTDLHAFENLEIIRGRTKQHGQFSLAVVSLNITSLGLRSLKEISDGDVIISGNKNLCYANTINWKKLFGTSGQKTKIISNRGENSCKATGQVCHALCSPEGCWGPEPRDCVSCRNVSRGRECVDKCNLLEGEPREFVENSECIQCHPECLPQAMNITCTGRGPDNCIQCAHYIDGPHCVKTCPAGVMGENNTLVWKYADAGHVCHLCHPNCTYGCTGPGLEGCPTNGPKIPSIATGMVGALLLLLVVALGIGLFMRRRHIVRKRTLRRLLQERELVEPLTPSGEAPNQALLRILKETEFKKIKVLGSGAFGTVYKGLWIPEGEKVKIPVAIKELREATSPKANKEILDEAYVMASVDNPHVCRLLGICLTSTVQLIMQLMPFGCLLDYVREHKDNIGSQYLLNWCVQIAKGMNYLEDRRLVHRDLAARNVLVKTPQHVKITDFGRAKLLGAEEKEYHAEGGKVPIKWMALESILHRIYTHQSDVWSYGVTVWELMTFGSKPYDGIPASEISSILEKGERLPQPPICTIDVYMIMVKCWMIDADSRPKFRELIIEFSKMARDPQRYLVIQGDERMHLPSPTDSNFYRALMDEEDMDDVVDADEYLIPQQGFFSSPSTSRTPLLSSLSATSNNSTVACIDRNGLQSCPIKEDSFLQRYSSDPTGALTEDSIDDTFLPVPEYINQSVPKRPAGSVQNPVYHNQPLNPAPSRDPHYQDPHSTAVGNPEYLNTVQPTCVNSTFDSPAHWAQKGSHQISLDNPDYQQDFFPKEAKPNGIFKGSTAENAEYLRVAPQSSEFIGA

In the case of `O=C1CCC(N2C(=O)c3cccc(NCCOCCOCCOCCN4CCN(c5ccc(-c6ccc7c(c6)C(=O)N(C(C(=O)Nc6nccs6)c6ccccc6O)C7)cn5)CC4)c3C2=O)C(=O)N1` (centres unmarked) [Compound I-14, 2-(6-(6-(4-(2-(2-(2-(2-((2-(2,6-Dioxopiperidin-3-yl)-1,3-dioxoisoindolin-4-yl)amino)ethoxy)ethoxy)ethoxy)ethyl)piperazin-1-yl)pyridin-3-yl)-1-oxoisoindolin-2-yl)-2-(2-hydroxyphenyl)-N-(thiazol-2-yl)acetamide], in assay [1], the EC50 was 1000 to 5000 nM and the “% control” value was “D (D is 75<% control)”. For the same compound, in assay [2], the EC50 is > 5000 nM. `O=C1CCC(N2C(=O)c3cccc(NCCOCCOCCOCCN4CCN(c5ccc(-c6ccc7c(c6)C(=O)N(C(C(=O)Nc6nccs6)c6ccccc6)C7)cn5)CC4)c3C2=O)C(=O)N1` (centres unmarked) [Compound I-22, 2-(6-(6-(4-(2-(2-(2-(2-((2-(2,6-Dioxopiperidin-3-yl)-1,3-dioxoisoindolin-4-yl)amino)ethoxy)ethoxy)ethoxy)ethyl)piperazin-1-yl)pyridin-3-yl)-1-oxoisoindolin-2-yl)-2-phenyl-N-(thiazol-2-yl)acetamide]: in assay [1], the EC50 is < 500 nM and the “% control” value is given as “A (A is 0<% control <25)”. The compound further showed an EC50 in assay [2] of 500 to 1000 nM. With `O=C1CCC(N2C(=O)c3cccc(NCCCCCCCCN4CCN(c5ccc(-c6ccc7c(c6)C(=O)N(C(C(=O)Nc6nccs6)c6cc(F)ccc6O)C7)cc5)CC4)c3C2=O)C(=O)N1` (centres unmarked) [Compound I-12, 2-(6-(4-(4-(8-((2-(2,6-Dioxopiperidin-3-yl)-1,3-dioxoisoindolin-4-yl)amino)octyl)piperazin-1-yl)phenyl)-1-oxoisoindolin-2-yl)-2-(5-fluoro-2-hydroxyphenyl)-N-(thiazol-2-yl)acetamide], in assay [1], the EC50 lay in the range of 1000 to 5000 nM and the “% control” value is reported as “B (B is 25<% control <50)”. The EC50 in assay [2] is > 5000 nM.

For the compound `O=C1CCC(N2C(=O)c3cccc(NCCOCCOCCOCCOCCN4CCN(c5ccc(-c6ccc7c(c6)C(=O)N(C(C(=O)Nc6nccs6)c6ccccc6)C7)cc5)CC4)c3C2=O)C(=O)N1` (centres unmarked) [Compound I-20, 2-(6-(4-(4-(14-((2-(2,6-Dioxopiperidin-3-yl)-1,3-dioxoisoindolin-4-yl)amino)-3,6,9,12-tetraoxatetradecyl)piperazin-1-yl)phenyl)-1-oxoisoindolin-2-yl)-2-phenyl-N-(thiazol-2-yl)acetamide], in assay [1], the EC50 was < 500 nM and the “% control” value was “A (A is 0<% control <25)”. In addition, the EC50 in assay [2] was < 500 nM. On to `O=C1CCC(N2C(=O)c3cccc(NCCOCCOCCC(=O)N4CCN(c5ccc(-c6ccc7c(c6)C(=O)N(C(C(=O)Nc6nccs6)c6ccccc6)C7)cc5)CC4)c3C2=O)C(=O)N1` (centres unmarked) [Compound I-7, 2-(6-(4-(4-(3-(2-(2-((2-(2,6-Dioxopiperidin-3-yl)-1,3-dioxoisoindolin-4-yl)amino)ethoxy)ethoxy)propanoyl)piperazin-1-yl)phenyl)-1-oxoisoindolin-2-yl)-2-phenyl-N-(thiazol-2-yl)acetamide], for which the “% control” value in assay [1] was “B (B is 25<% control <50)”. Still for that read-out and setting: the value for `Cc1ncsc1-c1ccc(CNC(=O)[C@@H]2C[C@@H](O)CN2C(=O)[C@@H](NC(=O)CCOCCOCCOCCC(=O)N2CCN(c3ccc(-c4ccc5c(c4)C(=O)N(C(C(=O)Nc4nccs4)c4cc(F)ccc4O)C5)cc3)CC2)C(C)(C)C)cc1` (stereo partly drawn) [Compound I-26, (2S,4R)-1-((2S)-2-(tert-Butyl)-16-(4-(4-(2-(1-(5-fluoro-2-hydroxyphenyl)-2-oxo-2-(thiazol-2-ylamino)ethyl)-3-oxoisoindolin-5-yl)phenyl)piperazin-1-yl)-4,16-dioxo-7,10,13-trioxa-3-azahexadecanoyl)-4-hydroxy-N-(4-(4-methylthiazol-5-yl)benzyl)pyrrolidine-2-carboxamide] was “D (D is 75<% control)”; that for `O=C(Nc1nccs1)C(c1cc(F)ccc1O)N1Cc2ccc(-c3ccc(N4CCNCC4)cc3)cc2C1=O` (centres unmarked) [TL Compd 2] was “D (D is 75<% control)”; that for `O=C1CCC(N2C(=O)c3cccc(NCCOCCOCCN4CCN(c5ccc(-c6ccc7c(c6)C(=O)N(C(C(=O)Nc6nccs6)c6ccccc6)C7)cc5)CC4)c3C2=O)C(=O)N1` (centres unmarked) [Compound I-21, 2-(6-(4-(4-(2-(2-(2-((2-(2,6-Dioxopiperidin-3-yl)-1,3-dioxoisoindolin-4-yl)amino)ethoxy)ethoxy)ethyl)piperazin-1-yl)phenyl)-1-oxoisoindolin-2-yl)-2-phenyl-N-(thiazol-2-yl)acetamide] was “C (C is 50<% control <75)”. Regarding `O=C1CCC(N2C(=O)c3cccc(NCCCCCCN4CCN(c5ccc(-c6ccc7c(c6)C(=O)N(C(C(=O)Nc6nccs6)c6ccccc6)C7)cc5)CC4)c3C2=O)C(=O)N1` (centres unmarked) [Compound I-17, 2-(6-(4-(4-(6-((2-(2,6-Dioxopiperidin-3-yl)-1,3-dioxoisoindolin-4-yl)amino)hexyl)piperazin-1-yl)phenyl)-oxoisoindolin-2-yl)2-phenyl-N-(thiazol-2-yl)acetamide], the “% control” value in assay [1] is listed as “C (C is 50<% control <75)”. `O=C(Nc1nccs1)C(c1ccccc1)N1Cc2ccc(-c3ccc(N4CCNCC4)cc3)cc2C1=O` (centres unmarked) [TL Compd 1, 2-(1-oxo-6-(4-(piperazin-1-yl)phenyl)isoindolin-2-yl)-2-phenyl-N-(thiazol-2-yl)acetamide]: the “% control” value in assay [1] was “B (B is 25<% control <50)”. The same measure, in the same setting: then `O=C1CCC(N2C(=O)c3cccc(NCCOCCC(=O)N4CCN(c5ccc(-c6ccc7c(c6)C(=O)N(C(C(=O)Nc6nccs6)c6ccccc6)C7)cc5)CC4)c3C2=O)C(=O)N1` (centres unmarked) [Compound I-8, 2-(6-(4-(4-(3-(2-((2-(2,6-Dioxopiperidin-3-yl)-1,3-dioxoisoindolin-4-yl)amino)ethoxy)propanoyl)piperazin-1-yl)phenyl)-1-oxoisoindolin-2-yl)-2-phenyl-N-(thiazol-2-yl)acetamide], with “D (D is 75<% control)”; and `O=C1CCC(N2C(=O)c3cccc(N4CCN(c5ccc(-c6ccc7c(c6)C(=O)N(C(C(=O)Nc6nccs6)c6ccccc6)C7)cc5)CC4)c3C2=O)C(=O)N1` (centres unmarked) [Compound I-35], with “D (D is 75<% control)”; and `Cc1ncsc1-c1ccc(CNC(=O)[C@@H]2C[C@@H](O)CN2C(=O)[C@@H](NC(=O)CCOCCOCCOCCC(=O)N2CCN(c3ccc(-c4ccc5c(c4)C(=O)N(C(C(=O)Nc4nccs4)c4ccccc4)C5)cc3)CC2)C(C)(C)C)cc1` (stereo partly drawn) [Compound I-25, (2S,4R)-1-((2S)-2-(tert-Butyl)-4,16-dioxo-16-(4-(4-(3-oxo-2-(2-oxo-1-phenyl-2-(thiazol-2-ylamino)ethyl)isoindolin-5-yl)phenyl)piperazin-1-yl)-7,10,13-trioxa-3-azahexadecanoyl)-4-hydroxy-N-(4-(4-methylthiazol-5-yl)benzyl)pyrrolidine-2-carboxamide], with “D (D is 75<% control)”. Still for that read-out and setting: then `O=C1CCC(N2C(=O)c3cccc(NCCCCCCCCN4CCN(c5ccc(-c6ccc7c(c6)C(=O)N(C(C(=O)Nc6nccs6)c6ccccc6)C7)cc5)CC4)c3C2=O)C(=O)N1` (centres unmarked) [Compound I-19, 2-(6-(4-(4-(8-((2-(2,6-Dioxopiperidin-3-yl)-1,3-dioxoisoindolin-4-yl)amino)octyl)piperazin-1-yl)phenyl)-1-oxoisoindolin-2-yl)-2-phenyl-N-(thiazol-2-yl)acetamide], with “D (D is 75<% control)”.

As for `CC1(N2C(=O)c3cccc(NCCOCCOCCOCCC(=O)N4CCN(c5ccc(-c6ccc7c(c6)C(=O)N(C(C(=O)Nc6nccs6)c6ccccc6)C7)cc5)CC4)c3C2=O)CCC(=O)NC1=O` (centres unmarked) [Compound I-27, 2-(6-(4-(4-(3-(2-(2-(2-((2-(3-Methyl-2,6-dioxopiperidin-3-yl)-1,3-dioxoisoindolin-4-yl)amino)ethoxy)ethoxy)ethoxy)propanoyl)piperazin-1-yl)phenyl)-1-oxoisoindolin-2-yl)-2-phenyl-N-(thiazol-2-yl)acetamide], the “% control” value in assay [1] is “D (D is 75<% control)”.
